The record followed here is patent US20240391930A1, “SPIROCYCLIC BICYCLIC MODULATORS OF CHOLESTEROL BIOSYNTHESIS AND THEIR USE FOR PROMOTING REMYELINATION” (GENENTECH, INC., priority 2021, published 2024).

Molecules are shown by their SMILES.

The subject of the assay is zymostenol accumulation in EpiSC-derived OPCs (EBP). The experiment in a line: GC/MS-based sterol profiling (zymostenol accumulation). The conditions noted are these: Mus musculus, 24 hours, 8 doses from 0.15 nM to 333 nM, read-out: Zymostenol GCMS EC50. The class given is cell-based. How it is done: To assess effects of treatments on OPCs, all treatments were assayed in two or more independent platings of epiblast stem cell-derived OPCs (EpiSC). EpiSC-derived OPCs were obtained using in vitro differentiation protocols and culture conditions described previously (Najm et al, 2011, Nature Methods). OPCs were expanded and frozen down in aliquots. OPCs were thawed into growth conditions for at least one passage before use in further assays.
Sterols were monitored using a modified Folch wash protocol (Hubler et al, 2018, Nature). EpiSC-derived OPCs were plated at 100,000 cells per well in PO- and laminin-coated 96-well plates in N2B27 media without growth factors. After 24 hours, cells were rinsed with saline and plates were frozen. Cholesterol-d7 standard was then added to each well before drying under nitrogen stream and derivatization with 55 μl of bis(trimethylsilyl) trifluoroacetamide. After derivatization, 2 μl were analyzed by gas chromatography/mass spectrometry using an Agilent 5973 Network Mass Selective Detector equipped with a 6890 gas chromatograph system and a HP-5MS capillary column (30 m×0.25 mm×[…]). Samples were analyzed in full scan mode using electron impact ionization; ion fragment peaks were integrated to calculate sterol abundance, and quantitation was relative to cholesterol-d7. The following ion fragments were used to quantitate each metabolite: cholesterol-d7 (465), FF-Mas (482), cholesterol (368), zymostenol (458), zymosterol (456), Desmosterol (456, 343), 7-dehydrocholesterol (456, 325), lanosterol (393), lathosterol (458), 14-dehydrozymostenol (456, 351). […] All standards were obtained from Avanti Polar Lipids unless otherwise indicated. Calibration curves were generated by injecting varying concentrations of sterol standards and maintaining a fixed amount of cholesterol-D7. For normalized zymostenol accumulation results, the total amount of zymostenol measured after drug treatment was divided by the total amount of zymostenol accumulated after 24 hr treatment with 100 nM positive control reference.
As usually defined, the EC50 is the concentration that produces a half-maximal response. Take `CC(C)n1nc(C(F)(F)F)cc1[C@H]1[C@@H]2C[C@H](N3CCC[C@@]4(CCS(=O)(=O)C4)C3)C[C@@H]21` (single isomer, unassigned) [Compound 94*]: the EC50 was 3.47 nM. Next, `CC(C)n1nc(C(F)(F)F)cc1[C@H]1[C@@H]2C[C@H](N3CCC[C@]4(CCS(=O)(=O)C4)C3)C[C@@H]21` (single isomer, unassigned) [Compound 95*]: 58.3 nM; `CC(C)n1nc(-c2cccc(C(F)(F)F)n2)cc1[C@H]1[C@@H]2C[C@H](N3CCC[C@@]4(CCS(=O)(=O)C4)C3)C[C@@H]21` (single isomer, unassigned) [Compound 82*]: 3.6 nM.

`CC(C)n1nc(-c2cccc(C(F)(F)F)n2)cc1[C@H]1[C@@H]2C[C@@H](N3CCC[C@]4(CCS(=O)(=O)C4)C3)C[C@@H]21` (single isomer, unassigned) [Compound 81*]: the EC50 came out at 27 nM. Take `CC(C)n1nc(-c2cccc(C(F)(F)F)n2)cc1[C@H]1[C@@H]2C[C@@H](N3CCC[C@@]4(CCS(=O)(=O)C4)C3)C[C@@H]21` (single isomer, unassigned) [Compound 80*]: the EC50 is 4.3 nM. As for `CC(C)n1nc(-c2cccc(C(F)(F)F)n2)cc1[C@H]1[C@@H]2C[C@H](N3CCC[C@]4(CCS(=O)(=O)C4)C3)C[C@@H]21` (single isomer, unassigned) [Compound 83*], the figure is 41 nM; as for `CC(C)n1nc(C(F)(F)F)cc1[C@H]1[C@@H]2C[C@@H](N3CCC[C@]4(CCS(=O)(=O)C4)C3)C[C@@H]21` (single isomer, unassigned) [Compound 93*], 240 nM.

`CC(C)n1nc(-c2cccc(C(F)(F)F)c2)nc1[C@H]1[C@@H]2C[C@@H](N3CCC4(CC3)CS(=O)(=O)C4)C[C@@H]21` [Compound 79, 7-((1R,3s,5S,6r)-6-(1-isopropyl-3-(3-(trifluoromethyl)phenyl)-1H-1,2,4-triazol-5-yl)bicyclo[3.1.0]hexan-3-yl)-2-thia-7-azaspiro[3.5]nonane 2,2-dioxide]: the EC50 came out at 3 nM.
